Measured values published in US20230201221A1, “USE OF TERPENOIDS IN THE TREATMENT OR PREVENTION OF FIBROTIC DISEASES” (ARJIL BIOTECH HOLDING COMPANY LIMITED, priority 2020, published 2023).

Tests used:
Format in all cases: in vivo
C57BL/6 mice = experiment: Cisplatin-induced renal injury in mice: kidney histopathology (H&E); settings: extract at 1000 mg/kg; cisplatin-stimulated mice
Excerpt: Kidney histopathology The anterior portion of the […] from each mouse is fixed in 10% formaldehyde phosphate buffer, embedded in paraffin, cut into 5 μm sections, and then treated with an hematoxylin and eosin (H&E) stain for histological examination under the light microscopy (Nikon, ECLIPSE, TS100, Tokyo, Japan). Images are captured with a digital camera (NIS-Elements D 2.30, SP4, Build 387) at an original magnification of 400×.
(§1) Seven-to-eight-week-old male C57BL/6 mice are obtained from the BioLASCO Taiwan Co., Ltd. (Taipei, Taiwan). The animals are housed in Plexiglas cages at a constant temperature of 22±1° C. and a relative humidity of 55±5% on a 12 h dark-light cycle for at least 2 weeks before the experiment. Animals are provided food and water ad libitum. All experimental procedures are performed according to the guidelines of the Institutional Animal Ethics Committee, and the protocol is approved by the Committee for the Purpose of Control and Supervision of Experiments on Animals.
(§2) Renal fibrosis is induced via multiple injections of low-dose cisplatin. Intraperitoneal injections of cisplatin (5 mg/kg/injection; P4394, Sigma-Aldrich, St Louis, Mo.) are performed at 0, 1, and 3 weeks, for a total of 3 injections. Mice are sacrificed at 6 weeks after the first dose of cisplatin (n=6). […]

[1] = tested on: TNF-α, IL-1β, IL-6 and TGF-β; experiment: Cisplatin-induced renal injury in mice: serum pro-inflammatory cytokines by ELISA; settings: extract at 1000 mg/kg; after cisplatin challenge
Description: TNF-α, IL-6, and IL-1β cytokines in serum The serum concentration of the pro-inflammatory cytokines (i.e. tumor necrosis factor-α (TNF-α), interleukin-6 (IL-6), and IL-1β) in serum are assessed with relevant enzyme-linked immunosorbent assay (ELISA) kits (Biosource International Inc., Sunnyvale, Calif., USA), based on the manufacturer's instructions.
as §1, §2

SD rats = experiment: CCl4-induced chronic liver fibrosis in rat
Description: Blood samples are collected at week 0, 2, 4, 6, and 8. The animals are sacrificed at the end of the 8-week for histopathological examinations. FIGS. 7A, 7B, 7C depict delta weight, liver weight, and liver/body-weight ratio, respectively.
The level of clinical biochemistry such as aspartate aminotransferase (AST), alanine aminotransferase (ALT), is evaluated to determine the enzymatic activities of the livers of the control groups and the experimental groups (shown in FIGS. 8A-8C).

BALB/c mice = experiment: Con A (concanavalin A) induced acute hepatitis in BALB/c mice; settings: mean ± SEM
Description: Male BALB/c mice (7-9 weeks old) were purchased from BioLASCO Taiwan Co., Ltd or National Laboratory Animal Center (NLAC, Taiwan). Animals are housed five per cage with food and water provided ad libitum throughout the experiments. Room temperature is maintained at 23±2° C. with an alternating 12 h light dark cycle. Animals are acclimatized for one week to minimize the effect of stress before the experiments. All experimental protocols involving animals and their care are approved by the Institutional Animal Care and Use Committee (IACUC) in ITRI (ITRI-IACUC-2018-041 and ITRI-IACUC-2018-050; accredited by AAALAC) and are carried out according to the regulations of the Council of Agriculture, Taiwan.
Con A is dissolved in pyrogen free saline at a concentration of 3 mg/mL and intravenously injected at a dose of 15 mg/kg or 20 mg/kg of body weight to induce hepatitis. […] Blood and liver tissues are collected 24 h after Con A treatment (FIG. 11). Serum are stored at […] until analysis.
To assess the level of hepatocellular injury after Con A treatment, serum GPT and GOT levels are measured by Fuji Dri-Chem slides (Fuji, Japan). The serum of the same group is pooled for cytokine assay. Cytokine levels are measured by ProcartaPlex™ immunoassays kit according to manufacturer's instructions. Data are presented as mean f SEM. T test is used to analyze the differences between drug and vehicle treated groups. The difference is regarded statistically significant when p value is less than 0.05.
Liver tissues are fixed in 10% phosphate buffered formaldehyde, embedded in paraffin, and stained with hematoxylin and eosin (H&E) in order to confirm tissue lesions. Tissue lesions are examined microscopically by a veterinary pathologist at BioLASCO Taiwan Co., Ltd. The criteria of severity grading system for all microscopic lesions are graded from 0 to 4 as follows: 0=none; 1=individual cell necrosis; 2=≤30% lobular necrosis; 3=≤60% lobular necrosis; 4=>60% lobular necrosis.

C=C1C(=O)O[C@H]2/C=C(\C)CC3C=C(CC/C=C(\C)CC[C@H]12)C(=O)O3 (some centres unmarked) [AR100-DS1, Ovatodiolide]
necrosis and inflammatory infiltrating cells in the kidney tissue (H&E) (C57BL/6 mice): significantly improved necrosis and inflammatory infiltrating cells in the kidney tissue
NO, TNF-α, IL-1β, and IL-6 production in serum [1]: improved NO, TNF-α, IL-1β, and IL-6 production
serum AST and ALT level (SD rats; 50 mg/kg, W6 and W8, compared with the vehicle group): less AST and ALT increases
liver appearance (SD rats; 50 mg/kg, after 8 weeks of CCl4 induction): smooth surface without atrophy and sclerosis
overall effect on CCl4-induced liver injury (SD rats; 8 weeks of CCl4 induction): potential to partially repair CCl4-induced liver injury
serum GPT level (BALB/c mice; 50 mg/kg oral, 24 h after 15 mg/kg Con A, vehicle 368±107, p<0.05): 109±25 U/L
serum GOT level (BALB/c mice; 50 mg/kg oral, 24 h after 15 mg/kg Con A, vehicle 410±56): 261±45 U/L
liver necrosis histopathological score (BALB/c mice; graded 0 to 4, 24 h after Con A, vehicle 1.4±0.2): 0.2±0.2
